Laboratory results published in patent US11248022B2, “Glypican-3 peptide reagents and methods” (THE REGENTS OF THE UNIVERSITY OF MICHIGAN, priority 2017, dated 2022).
Read-outs that look alike come from different tables or passages of the source. Ends that are not written are not given here.

Tests used:
[1] = Biodistribution of peptide in excised organs; assay type: in vivo, mice; conditions: excised organs 2 hours post injection, n=5
Experimental: To assess the biodistribution of peptide probe, mice (n=5) were sacrificed 2 hours after injection of 250 μL of 300 μM ALL*-Cy5.5 using a fluorescence imaging system (IVIS Spectrum, PerkinElmer, Mass.). The organs were harvested and imaged ex vivo. Mice injected with scrambled control peptide, QLE*-Cy5.5 and free dye Cy5.5 were imaged with the same filters and exposure time. Absence of auto fluorescence was confirmed in PBS injected mice. The amount of fluorescent signal in each organ was quantified as a percentage of total fluorescence signal (p/s) in each mouse. Ex vivo fluorescence images taken of internal organs as well as resected tumor 2 hours post injection of probes are shown in FIG. 10A. Free Cy5.5 dye and Cy5.5 labeled targeting and scrambled peptides accumulated most in the liver and kidneys of mice, followed by GI tract and spleen.

human HBV-derived HCC = test: Immunofluorescence on human HBV-derived HCC specimens; conditions: 5 μM, 15 min
Experimental: Formalin-fixed specimens of HBV-derived HCC from the bio-bank at the Peking University People's Hospital were used. The specimens were deparaffinized, and antigen retrieval was performed using standard methods. Specimens of HCC and non-tumorous liver were cut in 10 μm sections, and incubated with the ALL*-Cy5.5 peptide reagent at a concentration of 5 μM in 1× PBS for 15 min at RT. The sections were washed 3× with PBS and incubated overnight at 4° C. with a 1:1000 dilution of primary anti-GPC3 antibody (Santa Cruz Biotechnology, 1G12, sc-65443) overnight at 4° C. The sections were washed with PBS 3× and incubated with 1:500 dilution of Alexa Fluor 488-labeled secondary goat […] antibody (Invitrogen) for 1 hour at RT. The sections were fixed with 4% PFA for 10 min. The sections were then mounted with ProLong Gold reagent containing DAPI (Invitrogen). Confocal fluorescence images were collected with DAPI, FITC and Cy5.5 filters. A Pearson's correlation coefficient will be measured to assess co-localization of peptide and antibody binding.

Hep3B human HCC cells = test: Confocal microscopy of peptide binding to Hep3B cells; assay type: cell-based
Experimental: FIGS. 6-2A-Q show validation of specific peptide binding to cells in vitro. […] The Hep3B versus SK-Hep1 difference was also larger for antibody than QLE (P=2.3×10^−8, 6.0-fold larger). Intensity was measured with 6 replicates per condition and fitted to an ANOVA model with terms for 9 means to log-transformed data. […] We further validated specific peptide binding to GPC3 using siRNA knockdown. […] Q) Quantified fluorescence intensities. The siCL vs siGPC3 difference was 7.4 times bigger for ALL than the same difference for QLE (P=7.8×10^−5), and the difference for antibody was 8.9 times bigger than for QLE (P=2.5×10^−5), by ANOVA on log-transformed data. Results are an average of 6 images collected independently.
On confocal microscopy, it was shown that ALL*-Cy5.5 binds to the surface (arrows) of cells with different levels of GPC3 expression. […] GPC3 is highly overexpressed in Hep3B cell cytosol and membrane while moderately expressed in HepG2 cells. No GPC3 expression is observed in SK-Hep1 cells. Tubulin serves as loading control for either cytosol or membrane fractions loaded.

Hep3B cells = test: Apparent association time constant on Hep3B cells by flow cytometry; assay type: binding, human
Experimental: The apparent association time constant (k) was also measured for the optimized GPC3 peptide to provide an assessment of how rapidly the peptide binds. The ALL*-Cy5.5 peptide reagent was incubated with Hep3B cells over time intervals ranging from 0 to 40 min. Fluorescence intensities were measured on flow cytometry. The median fluorescence intensity (y) was ratioed with that of Hep3B cells without addition of peptide reagent at different time points (t).

**Q.** Which “signal in the tumor vs scrambled probe, GPC3 negative tumor, free dye” value [1] does the source give for “ALLANHEELFQT (SEQ ID NO: 1) peptide labeled with Cy5.5 via a GGGSK linker on the C-terminus (ALLANHEELFQTGGGSK-{Cy5.5}) [ALL*-Cy5.5]” here?
**A.** significantly higher

**Q.** And the “binding to section of HBV-derived HCC on immunofluorescence” value (human HBV-derived HCC)?
**A.** strong binding

**Q.** And the “intensity difference Hep3B vs SK-Hep1 relative to the same difference for QLE*” value (Hep3B human HCC cells; 6 replicates, log-transformed data)?
**A.** 8.2 fold

**Q.** What about the “fluorescence intensity from binding to cell surface” value (Hep3B human HCC cells; Hep3B cells, confocal microscopy) of the same sequence?
**A.** strong fluorescence intensity

**Q.** What about the “apparent association time constant k” value (Hep3B cells) of the same sequence?
**A.** 0.11 min⁻¹

**Q.** What about the onset of binding (Hep3B cells) of the same sequence?
**A.** 9.1 min

**Q.** And the apparent association time constant k (Hep3B cells; FIG. 8B legend)?
**A.** 0.11 min⁻¹
